Assay results reported in patent US11826402B2, “Combination therapy involving antibodies against claudin 18.2 for treatment of metastatic pancreatic adenocarcinoma” (Astellas Pharma Inc., priority 2013, dated 2023).
Values after ≈ are worked out from the molar mass of the structure shown. “Also recorded” adds a separate entry of the source.

Assays:
[1] = Repeated dose toxicity study in cynomolgus monkeys; format: in vivo
[2] = target: first extracellular domain (ECD1) of CLDN18.2 (Homo sapiens, UniProt P56856); assay: Target binding of IMAB362 (background)
[3] = Repeated dose toxicity study in mice; format: in vivo
[4] = test system: BxPC3-LVT xenografts; assay: Subcutaneous BxPC3-LVT xenograft treatment
Protocol: BxPC3-LVT xenograft tumors were inoculated by injection of 1 e7 BxPC3-LVT cells subcutaneous into the flank of 15 female Hsd:Athymic Nude-Foxn1nu mice for each treatment group. […] Treatment was continued semi-weekly with alternating i.p. and i.v. injection until animals were sacrificed. […] The size of s.c. tumors was measured twice weekly (mean+SEM, * p<0.05). […] Mice were sacrificed, when tumor reached a volume of 1400 mm^3 or tumor became ulcerous.
BxPC3-LVT xenograft tumors were inoculated by injection of 8.5 e6 BxPC3-LVT cells subcutaneous into the flank of 10 female Hsd:Athymic Nude-Foxn1nu mice for each treatment group. On the third day after tumor cell injection, treatment was initiated with chemotherapy (50 mg/kg gemcitabine i.p., respectively 50 mg/kg gemcitabine plus 5 mg/kg oxaliplatin i.p.) and were continued weekly for six weeks. […] The size of s.c. tumors was measured twice weekly (mean+SEM). […] Mice were sacrificed when tumors reached a volume of 1400 mm3 or tumors became ulcerous.
BxPC3-LVT xenograft tumors were inoculated by injection of 8.5 e6 BxPC3-LVT cells subcutaneous into the flanks of 10 female Hsd:Athymic Nude-Foxn1nu mice for each treatment group. On the third day after tumor cell injection, treatments were initiated with chemotherapy (100 mg/kg gemcitabine i.p., or 100 mg/kg gemcitabine plus 5 mg/kg oxaliplatin i.p.) and were continued weekly for six weeks. […] The size of s.c. tumors was measured twice weekly (mean+SEM). […] Mice were sacrificed when tumors reached a volume of 1400 mm^3 or tumors became ulcerous.
(§4) Xenograft tumors were inoculated by subcutaneous injection of tumor cells in 200 μl PBS into the flanks of female Hsd:Athymic Nude-Foxn1^nu mice. Tumor bearing mice were treated with 0 μg, 200 μg, 400 μg or 800 μg antibody injected i.v. weekly or alternating i.v./i.p. semi-weekly. Chemotherapeutic agents were applied i.p. weekly or semi-weekly. Tumor sizes and animal health were monitored semi-weekly. At the end of chemotherapy treatment, antibody applications were continued until tumors reached a volume of >1400 mm^3 or until tumors became ulcerous. Tumor samples were cryo conserved or fixed in 4% formalin for subsequent analysis.

[5] = test system: MiaPaCa-2-LVT xenografts; assay: Subcutaneous MiaPaCa-2-LVT xenograft treatment
Protocol: MiaPaCa2-LVT xenograft tumors were inoculated by injection of 1 e7 MiaPaCa2-LVT cells subcutaneous into the flank of 15 female Hsd:Athymic Nude-Foxn1nu mice for each treatment group. […] Treatment was continued semi-weekly with alternating i.p. and i.v. injection until animals were sacrificed. […] The size of s.c. tumors was measured twice weekly (mean+SEM). […] Mice were sacrificed when tumor reached a volume of 1400 mm^3 or tumor became ulcerous.
MiaPaCa2-LVT xenograft tumors were inoculated by injection of 5 e6 MiaPaCa2-LVT cells subcutaneous into the flank of 10 female Hsd:Athymic Nude-Foxn1nu mice for each treatment group. 4 days after tumor cell injection, treatment was initiated with chemotherapy (50 mg/kg gemcitabine i.p) and were continued weekly for six weeks. […] The size of tumors was measured twice weekly (mean+SEM). […] Mice were sacrificed when tumors reached a volume of 1400 mm^3 or tumors became ulcerous.
as §4

[6] = target: Suit2; assay: IMAB362-mediated CDC assay (healthy human serum pool, luciferase); format: cell-based
Protocol: (§1) CDC was performed as follows.

[7] = target: DANG; assay: as above; format: cell-based
Protocol: as §1

[8] = test system: BxPC3; assay: as above; format: cell-based
Protocol: as §1

[9] = target: CAPAN1; assay: as above; format: cell-based
Protocol: as §1

[10] = test system: YAPC; assay: as above; format: cell-based
Protocol: as §1

[11] = target: Panc05.04; assay: as above; format: cell-based
Protocol: as §1

[12] = test system: DANG; assay: IMAB362-mediated ADCC assay (luciferase, human PBMCs, E:T 40:1), also after chemotherapy pretreatment; format: cell-based
Protocol: For ADCC assays pancreatic cancer cell lines were transiently transfected with luciferase RNA. […] RNA was stored in 22 μl aliquots at −80° C. […] In each assay cells were detached with PBS/5 mM EDTA and 2.5×10^6 cells dissolved in 250 μl X-Vivo were mixed in ice-cold cuvettes with 10 μg RNA. Cells were immediately electroporated (GenePulser Xcell, Biorad) and resuspended in pre-warmed Assay-medium adjusting the cells to 5×10^5 cells/ml.
The viability of the cells was determined directly after electroporation using CASY or by staining cells with Trypan blue and determining the percentage of dead cells in the Neubauer chamber. Cells were seeded in quadruplicates in white 96-well plates (2.5×10^4 cells/well) and incubated for 24 h. Subsequently, luciferase activity was measured in a luminometer (Tecan Infinite200) after addition of luciferin mix for 90 min. Transfection was successful and consequently ADCC measurable, if RLU values >1.000 were obtained.
Pancreatic cancer target cells were seeded two days in advance in flasks to obtain 80-90% confluent cultures on the day ADCC started. […] NUGC-4 sub 10cH11 subE10 Luci #2 cells (8000 cells/well) were seeded in addition as positive controls in all assays. Cells were cultivated for 4-6 h before addition of antibody and purified PBMCs. PBMCs were prepared from fresh human buffy coat obtained from healthy donors. About 3× 20-25 ml blood was diluted (1:2) with PBS and carefully layered on 4×15 ml Ficol-Paque Plus (GE Healthcare) in 50 ml Falcon tubes. Gradients were centrifuged (25 min, 700 g). After centrifugation, peripheral blood mononuclear cells (PBMC) were collected from the interphase, washed in PBS/2 mM EDTA, centrifuged (5 min, 468 g), again resuspended in PBS/2 mM EDTA and centrifuged (10 min, 208 g) to remove the platelets. The pellets were resuspended in 50 ml PBS/2 mM EDTA and cells were counted.
Of each dilution 25 μl was added in quadruplicates to the target cells. PBS without antibodies was added in the medium and lysis control wells. Subsequently, 25 μl PBMCs were added to each well (E:T ratio=40:1) and plates were incubated for 24 h±1 h at 37° C., 5% CO2.
The next day, 10 μl 8% Triton X100/PBS solution was added to the lysis control wells and 10 μl PBS in all other wells. […] Luminescence resulting from the oxidation of […] by the luciferase of viable cells was measured using a microplate-reader (Infinite200, Tecan, Switzerland). Percentage of cellular cytotoxicity was calculated using the following formula: Specific killing (%)=100−[(RLUsample−RLUtriton)/(RLUmedium ctrl−RLUtriton)×100]
12. Cultivation of Pancreas Cancer Cell Lines with Chemotherapeutic Drugs for ADCC or CDC For DANG 4 to 6 E+06 cells were seeded and cultivated for 2 days in medium or medium+1 ng/ml gemcitabine or 1 ng/ml gemcitabine+10 ng/ml oxaliplatin.
On the day ADCC started, the protocol described above was followed and cell surface expression of CLDN18 was determined in FACS analysis as described above.
PBMCs of different donors were added in each experiment.

[13] = test system: MiaPaCa-2-LVT; assay: IMAB362-mediated CDC after cultivation with chemotherapeutic agents
Protocol: Dose response curves of 2 independent assays. MiaPaCa2-LVT were cultivated in medium, Gem (10 ng/ml) or GemOx (10 ng/ml Gem+100 ng/ml Ox) for 70 h.
An additional positive control was generated at the end of the reaction by addition of 0.8% Triton X100 to a second medium control well causing total lysis. […] All samples were prepared (200 μl each) at the same time in a 96 well deepwell dilution plate. Samples were taken 3 times from each well by reverse pipetting to generate the triplicates in the assay plates.
To each well 10 μl PBS was added, except in the Triton-Lysis control wells. To each Triton-Lysis control well, 10 μl 0.8% Triton/PBS solution was added. Luciferin substrate solution was prepared (6114 μl Aqua bidest, 2496 μl HEPES (IM), 1998 μl 1×DPBS, 4992 μl D-Luciferin Stocksolution (12 mg/ml)). To each well 50 μl Luciferin substrate solution was added. […] Plates will be measured in a microplate reader. • Complement-dependent lysis was calculated using formula: Specific lysis (%)=100−[(RLUsample−RLUtriton)/(RLUHSCM−RLUtriton)×100]
Modifications for testing the pancreatic cancer cell lines: • Pancreatic cancer cells were transfected with luciferase RNA using optimized conditions.

[14] = test system: Capan1-LVT; assay: Inhibition of proliferation (XTT viability assay, 4 days); format: cell-based; conditions: Homo sapiens, 96 h, 4 days exposure
Protocol: (§2) To analyze dose-response curves of each chemotherapeutic agent, a proliferation assay was performed.
(§3) Cells were seeded in 96 well plates and after 4-6 hours gemcitabine or oxaliplatin was added in following concentrations: 1000, 500, 250, 100 and 20 ng/ml. The proliferation assay was incubated for 4 days at 37° C. and 5% CO2. 50 μl XTT complete reagent (50 parts XTT+1 part coupl. reagent mixed) was added and incubated at 37° C. Measurement of absorbance (cells plus supernatant) was done with the Tecan Safire after 3 h and 4 h. Inhibition of proliferation was calculated compared to medium values set as 100%. EC50 values for gemcitabine and oxaliplatin were calculated in the GraphPad Prism program.

[15] = test system: MiaPaCa-2-LVT; assay: as above; format: cell-based, human
Protocol: as §2, §3

[16] = test system: DANG; assay: as above; format: cell-based, human
Protocol: as §2, §3

[17] = test system: BxPC3-LVT; assay: as above; format: cell-based, human
Protocol: as §2, §3

[18] = Homo sapiens, 96 h, 4 days exposure

## IMAB362: chimeric IgG1 antibody directed against CLDN18.2, developed by Ganymed Pharmaceuticals AG
[1]; any toxicity study
  gastric toxicity: no gastric toxicity
[1]; up to 5 weekly applications of up to 100 mg/kg
  tolerability of repeated doses i.v.: well tolerated
[2]
  recognition of ECD1 of CLDN18.2: high affinity and specificity
[3]; any toxicity study
  gastric toxicity: no gastric toxicity
[3]; weekly for 3 months, up to 400 mg/kg
  tolerability of repeated doses i.v.: well tolerated
[4]; BxPC3-LVT s.c. xenograft, 200 μg IMAB362 semi-weekly
  median survival versus saline control: prolonged median survival
[4]; BxPC3-LVT s.c. xenograft, IMAB362 single agent
  tumor growth versus saline control: significantly inhibited tumor growth; also recorded: significant tumor growth retardation
[5]; MiaPaCa-2-LVT s.c. xenograft, 200 μg IMAB362 semi-weekly
  median survival versus saline control: prolonged median survival
[5]; MiaPaCa-2-LVT s.c. xenograft, IMAB362 single agent
  tumor growth versus saline control: significantly inhibited tumor growth; also recorded: significant tumor growth retardation
[6]
  CDC EC50: n.m.
  CDC Max. lysis: n.m.
[6]; healthy human serum pool
  complement-dependent lysis: not lysed
[7]
  CDC EC50: n.m.
  CDC Max. lysis: n.m.
[7]; healthy human serum pool
  complement-dependent lysis: not lysed
[8]
  complement-dependent lysis: not lysed
[9]
  CDC EC50: n.m.
  CDC Max. lysis: n.m.
[9]; healthy human serum pool
  complement-dependent lysis: not lysed
[10]; YAPC, healthy human serum pool
  complement-dependent lysis: not lysed
[10]; YPAC
  CDC EC50: n.m.
  CDC Max. lysis: n.m.
[11]
  CDC EC50: n.m.
  CDC Max. lysis: n.m.
[11]; healthy human serum pool
  complement-dependent lysis: not lysed
[12]; DANG
  ADCC killing by IMAB362 and PBMCs: efficiently killed
[12]; DANG (pooled with Panc05.04), PBMCs of different donors, E:T 40:1
  EC50 of effector cell-dependent killing (ADCC): 0.1 to 38 µg/mL
[12]; DANG, at highest antibody concentrations
  maximum killing rate (ADCC): ~50%
[12]; DANG, at least 2 donors
  ADCC EC50: 4.9765 ± 4.1254 µg/mL
  ADCC Max. lysis: 52.5 ± 7.8%
[13]; MiaPaCa-2-LVT treated with Gem
  max lyses (CDC), Gem treated versus medium: increase
[13]; MiaPaCa-2-LVT treated with Gem (10 ng/ml, 70 h)
  EC50 for IMAB362 specific lyses (CDC): 4.677 µg/mL
[13]; medium cultivated MiaPaCa-2-LVT
  EC50 for IMAB362 specific lyses (CDC): 7.665 µg/mL

## Nc1ccn([C@@H]2O[C@H](CO)[C@@H](O)C2(F)F)c(=O)n1 [gemcitabine, 4-amino-1-(2-deoxy-2,2-difluoro-β-D-erythro-pentofuranosyl)pyrimidin-2(1H)-one]
[4]; BxPC3-LVT xenograft, up to 100 mg/kg gemcitabine
  therapeutic effect of chemotherapy without IMAB362: no significant therapeutic effect
[14]
  IC50: ~0.001 µg/mL (≈ 3.8 nM)
[15]
  sensitivity of cells to the agent: less sensitive
[15]; [18]
  IC50: 0.05 µg/mL (≈ 190 nM)
[16]
  sensitivity of cells to the agent: very sensitive
[16]; [18]
  IC50: ~0.001 µg/mL (≈ 3.8 nM)
[17]
  sensitivity of cells to the agent: very sensitive
[17]; [18]
  IC50: ~0.002 µg/mL (≈ 7.6 nM)
[5]; MiaPaCa-2-LVT xenograft, up to 100 mg/kg gemcitabine
  therapeutic effect of chemotherapy without IMAB362: no significant therapeutic effect
[12]; DANG pretreated 2 days, Gem 1 ng/ml or Gem 1 ng/ml+Ox 10 ng/ml
  effect of pretreatment on IMAB362 mediated ADCC: higher susceptibility for IMAB362 mediated ADCC
